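Growth conditions: 96-well plates. Treatment: test compound, 48 hours, 5 concentrations. Analysis: linear interpolation between bracketing concentrations; unreached endpoints set to highest concentration. GI50 is the concentration that inhibits growth by half.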 Calls of active or inactive are those of the source. Cut-off read from the data, not from the text of the source: active = GI50 up to about 1.1 µM and inactive = higher.
What was measured:
Test in all cases: NCI anticancer screen, dose series, 48 h
786-0 = system: 786-0
CCRF-CEM = system: CCRF-CEM
COLO 205 = system: COLO 205
HCT-15 = system: HCT-15
HOP-92 = system: HOP-92
IGROV-1 = system: IGROV-1
KM12 = system: KM12
M14 = system: M14
NCI-H226 = system: NCI-H226
NCI-H23 = system: NCI-H23
OVCAR-5 = system: OVCAR-5
RPMI-8226 = system: RPMI-8226
SF-539 = system: SF-539
SK-MEL-2 = system: SK-MEL-2
SR = system: SR
SW-620 = system: SW-620
U-251 = system: U-251

| Compound | GI50 (786-0) | GI50 (CCRF-CEM) | GI50 (COLO 205) | GI50 (HCT-15) [µM] | GI50 (HOP-92) | GI50 (IGROV-1) | GI50 (KM12) | GI50 (M14) | GI50 (NCI-H226) | GI50 (NCI-H23) | GI50 (OVCAR-5) | GI50 (RPMI-8226) | GI50 (SF-539) | GI50 (SK-MEL-2) | GI50 (SR) | GI50 (SW-620) | GI50 (U-251) |
| --- | --- | --- | --- | --- | --- | --- | --- | --- | --- | --- | --- | --- | --- | --- | --- | --- | --- |
| CN(C)CC1CCCC/C1=N/OC(=O)c1ccc(Cl)cc1 (stereo not given) | > 100 µM (inactive) | > 100 µM (inactive) | > 100 µM (inactive) | > 100 | > 100 µM (inactive) | > 100 µM (inactive) | > 100 µM (inactive) | > 100 µM (inactive) | > 100 µM (inactive) | > 100 µM (inactive) | > 100 µM (inactive) | > 100 µM (inactive) | > 100 µM (inactive) | > 100 µM (inactive) | > 100 µM (inactive) | > 100 µM (inactive) | > 100 µM (inactive) |
| C=CCNC(=S)N1c2ccccc2NC(=O)CC1C (stereo not given) | > 100 µM (inactive) | > 100 µM (inactive) | > 100 µM (inactive) | > 100 |  | > 100 µM (inactive) | > 100 µM (inactive) | > 100 µM (inactive) | > 100 µM (inactive) | > 100 µM (inactive) | > 100 µM (inactive) | > 100 µM (inactive) | > 100 µM (inactive) | > 100 µM (inactive) | > 100 µM (inactive) | > 100 µM (inactive) | > 100 µM (inactive) |
| CCNC(=O)O/N=C1/C=C2CC[C@@H]3C(CC[C@@]4(C)C3CC[C@@H]4OC(=O)NCC)[C@@]2(C)CC1 (stereo not given in full) | 3.23 µM (inactive) |  | 2.44 µM (inactive) | 2.77 | 4.43 µM (inactive) | 7.5 µM (inactive) | 2.54 µM (inactive) | 2.96 µM (inactive) |  | 3.07 µM (inactive) | 6.78 µM (inactive) | 2.52 µM (inactive) | 4.32 µM (inactive) | 2.21 µM (inactive) |  | 3.02 µM (inactive) | 2.42 µM (inactive) |
| C/N=C(\SC)N(C)c1nc(=[N+](C)C)ss1.[O-][Cl+3]([O-])([O-])[O-] | > 100 µM (inactive) | 4.17 µM (inactive) |  | > 100 | > 100 µM (inactive) | > 100 µM (inactive) | > 100 µM (inactive) | > 100 µM (inactive) | > 100 µM (inactive) | > 100 µM (inactive) | > 100 µM (inactive) |  |  | > 100 µM (inactive) | 56 µM (inactive) | 31.6 µM (inactive) | > 100 µM (inactive) |
| CC(C)c1cccc(C(C)C)c1NC(=O)C(=O)C1SC(=S)NC1=O (stereo not given) | > 100 µM (inactive) | > 100 µM (inactive) | > 100 µM (inactive) | > 100 | > 100 µM (inactive) | > 100 µM (inactive) | > 100 µM (inactive) | > 100 µM (inactive) | > 100 µM (inactive) | > 100 µM (inactive) | > 100 µM (inactive) | > 100 µM (inactive) | > 100 µM (inactive) | > 100 µM (inactive) | > 100 µM (inactive) | > 100 µM (inactive) | > 100 µM (inactive) |
| O=c1oc2c3ccc4ccccc4c3n(CCN3CCCCC3)c2c2ccccc12 | 10.3 µM (inactive) | 9.35 µM (inactive) | 14.8 µM (inactive) | 38.2 | > 100 µM (inactive) | > 55.2 µM (inactive) | 79.1 µM (inactive) | 20 µM (inactive) |  | 21.4 µM (inactive) | > 100 µM (inactive) | > 100 µM (inactive) | 17.1 µM (inactive) | 26.5 µM (inactive) | 3.21 µM (inactive) | 18.8 µM (inactive) | 17.7 µM (inactive) |
| COc1ccc(/C=C2\CCC(CCN3CCOCC3)C2=O)cc1 (stereo not given) | > 100 µM (inactive) | > 100 µM (inactive) |  | > 100 | > 100 µM (inactive) | > 100 µM (inactive) | > 100 µM (inactive) | > 100 µM (inactive) | > 100 µM (inactive) | > 100 µM (inactive) | > 100 µM (inactive) | > 100 µM (inactive) | > 100 µM (inactive) | > 100 µM (inactive) | > 100 µM (inactive) | > 100 µM (inactive) |  |
| O=c1cccccc1NCCCCCCCNc1cccccc1=O | > 100 µM (inactive) | 13.4 µM (inactive) | 40.1 µM (inactive) | 35.2 | 41.6 µM (inactive) | 54.2 µM (inactive) | 56.4 µM (inactive) | 23 µM (inactive) | 34.5 µM (inactive) | 19.7 µM (inactive) | 77.1 µM (inactive) | 13.8 µM (inactive) | 91.4 µM (inactive) | 49 µM (inactive) | 22.1 µM (inactive) | 52 µM (inactive) | > 10 µM (inactive) |
| Cn1c(=O)c2nc(-c3ccc(Cl)cc3)oc2n(C)c1=O | > 100 µM (inactive) | > 100 µM (inactive) |  | > 100 | > 100 µM (inactive) |  | > 100 µM (inactive) | > 100 µM (inactive) | > 100 µM (inactive) | > 100 µM (inactive) | > 100 µM (inactive) | > 100 µM (inactive) | > 100 µM (inactive) | > 100 µM (inactive) | > 100 µM (inactive) | > 100 µM (inactive) | > 100 µM (inactive) |
| CC1C(=O)N(C)C2(CO)C(=O)O[C@H](C)C12O (stereo not given in full) | > 100 µM (inactive) |  | > 100 µM (inactive) | > 100 | < 0.01 µM (active) | > 100 µM (inactive) | > 100 µM (inactive) | > 100 µM (inactive) |  | > 100 µM (inactive) | > 100 µM (inactive) | > 100 µM (inactive) | > 100 µM (inactive) | > 100 µM (inactive) | > 100 µM (inactive) |  | > 100 µM (inactive) |
| Cc1c(Cl)cccc1NC(=O)CC1C(=O)Nc2ccccc2S1(=O)=O (stereo not given) | 17.3 µM (inactive) | 16.5 µM (inactive) |  | 10.3 | 15.7 µM (inactive) | 15.3 µM (inactive) |  | 14.2 µM (inactive) | 16.9 µM (inactive) | 18.1 µM (inactive) | 20.6 µM (inactive) | 11.6 µM (inactive) | 14.7 µM (inactive) | 19.4 µM (inactive) | 10.5 µM (inactive) | 20 µM (inactive) | 13.1 µM (inactive) |
| C#CC[C@]12CC(=O)CC[C@H]1CC(=O)C2 | > 100 µM (inactive) | > 100 µM (inactive) | > 100 µM (inactive) | > 100 |  | > 100 µM (inactive) | > 100 µM (inactive) | > 100 µM (inactive) | > 100 µM (inactive) |  |  | > 100 µM (inactive) | > 100 µM (inactive) | > 100 µM (inactive) | > 100 µM (inactive) | > 100 µM (inactive) | > 100 µM (inactive) |
| N=C(N)N/N=C(/CCN1CCCC1)CC(c1ccccc1)c1c(O)c2ccccc2oc1=O (stereo not given) | > 100 µM (inactive) | > 10 µM (inactive) | > 100 µM (inactive) |  | 16.7 µM (inactive) | > 100 µM (inactive) |  | > 100 µM (inactive) | > 100 µM (inactive) | > 100 µM (inactive) |  | > 100 µM (inactive) | > 100 µM (inactive) | > 100 µM (inactive) |  | > 100 µM (inactive) |  |
| Cc1ccc(NC(=O)SCCC(=O)O)cc1NC(=O)SCCC(=O)O | > 100 µM (inactive) | > 100 µM (inactive) | > 10 µM (inactive) | > 100 |  | > 100 µM (inactive) | > 100 µM (inactive) | > 100 µM (inactive) | > 100 µM (inactive) | > 100 µM (inactive) | > 100 µM (inactive) | > 100 µM (inactive) | > 100 µM (inactive) | > 100 µM (inactive) | > 100 µM (inactive) | > 100 µM (inactive) | > 100 µM (inactive) |
| CCOC(=O)/C(=C/c1ccc(OC)c(OC)c1)C(=O)c1ccccc1 | > 100 µM (inactive) | 9.64 µM (inactive) | 16.9 µM (inactive) | 15.1 |  | 20.2 µM (inactive) | 14.9 µM (inactive) | 13.9 µM (inactive) |  | 17.7 µM (inactive) | 17.5 µM (inactive) | 10.5 µM (inactive) |  | 38.5 µM (inactive) |  | 19.4 µM (inactive) | 19.5 µM (inactive) |
| C=C1CCc2occ(C)c2C2C1C1=C(CC(C)C1=O)C1OC12C (stereo not given) | > 100 µM (inactive) | > 100 µM (inactive) | > 100 µM (inactive) | > 100 | > 100 µM (inactive) | > 100 µM (inactive) | > 100 µM (inactive) | > 100 µM (inactive) | > 100 µM (inactive) | > 100 µM (inactive) | 21.8 µM (inactive) |  | > 100 µM (inactive) | > 100 µM (inactive) |  | > 100 µM (inactive) | > 100 µM (inactive) |
| Cc1ccc(Oc2ccccc2N)cc1 | 21.2 µM (inactive) | 7.03 µM (inactive) | 6.07 µM (inactive) | 19.5 | 37.8 µM (inactive) | 50.4 µM (inactive) | 33.3 µM (inactive) | 33.5 µM (inactive) |  | 39.9 µM (inactive) | 40.6 µM (inactive) | 33.7 µM (inactive) | 16.7 µM (inactive) | 51.5 µM (inactive) | 9.31 µM (inactive) | 45.9 µM (inactive) | 4.43 µM (inactive) |
| Cc1[nH]c2ccccc2c1CC/C(=N\Nc1ccccc1)c1ccccc1 | > 100 µM (inactive) | > 100 µM (inactive) |  | > 100 |  | > 100 µM (inactive) | > 100 µM (inactive) | > 100 µM (inactive) | > 100 µM (inactive) | > 100 µM (inactive) | > 100 µM (inactive) | > 100 µM (inactive) | > 100 µM (inactive) | > 100 µM (inactive) |  | > 100 µM (inactive) | > 100 µM (inactive) |
| COC(=O)NN1C(C)=C(C(=O)OC)C2(C#N)C(C(=O)OC)=C(C)N(NC(=O)OC)C12N (stereo not given) | > 100 µM (inactive) | > 100 µM (inactive) | > 100 µM (inactive) | > 100 | > 100 µM (inactive) | > 100 µM (inactive) |  | > 100 µM (inactive) | > 100 µM (inactive) | > 100 µM (inactive) | > 100 µM (inactive) | > 100 µM (inactive) | > 100 µM (inactive) | > 100 µM (inactive) |  | > 100 µM (inactive) | > 100 µM (inactive) |

Source: ChEMBL document CHEMBL1201862, “PubChem BioAssay data set” (2004)
